From US8969544B2, “Combined use of PRAME inhibitors and HDAC inhibitors” (priority 2004, dated 2015) come the findings set out here.

One test has as its system RAS^V12-MEFs. Nature of the test: growth of RAS^V12-MEFs in the presence of HDAC inhibitor. The test is classed as cell-based, mouse. As for the experimental part: In order to address the molecular basis for the selective growth-inhibitory activity of HDACi on cancer cells, we performed a functional genetic screen to identify genes that confer resistance to a small-molecule HDACi, named PXD101 (Plumb et al, 2003). Oncogenic RAS^V12-transformed mouse embryonic fibroblasts (RAS^V12-MEFs) were infected with a high complexity retroviral cDNA expression library derived from human K562 erythroleukemia cells and exposed to 1 μM PXD101 for three to […]. HDACi-resistant colonies appeared at low frequency only after infection with cDNA expression library. Integrated proviruses were mobilized from PXD101-resistant colonies by Moloney virus super-infection as described (Jacobs et al, 2000). After second round selection, cDNA inserts were recovered by PCR and identified by DNA sequence analysis. Using this approach, we identified full-length cDNAs encoding the human melanoma tumour antigen PRAME (PReferentially expressed Antigen in MElanoma (Ikeda et al, 1997) and Retinoic Acid Receptor alpha (RARα) as cDNAs that allow continuous proliferation in the presence of 1 μM PXD101. PRAME also rescues these cells from growth arrest by a related HDACi, Trichostatin A at a concentration of 0.1 μM.
The observed effect of PRAME on RAR signalling could result from a physical interaction of PRAME with RAR or from more indirect effects. […]

The subject of another test is RARβ and p21. In words: immunoblot of RA target genes RARβ and p21 in A375-PRAME^KD cells. It counts as cell-based, human. The note with it: 5 μM RA. The method, then:
(§1) Cells were lysed in Ripa buffer (50 mM Tris pH 8.0, 150 mM NaCl, 1% NP-40, 0.5% deoxycholic acid, and 0.1% SDS) supplemented with protease inhibitors (Complete; Roche) and […] PMSF and proteins were separated on 10-14% SDS-PAGE gels. Proteins were transferred to polyvinylidine difluoride membranes (Immobilon P, Millipore) and Western blots were probed with the indicated antibodies. For TAP (co-)immunoprecipitations cells were lysed in ELB buffer (0.25 M NaCl, 0.1% NP-40, 50 mM HEPES pH 7.3) supplemented with protease inhibitors and PMSF. Lysates were incubated with IgG-coated sepharose beads (Amersham) to immunoprecipitate TAP and TAP-PRAME (Rigaut et al 1999), indicated as anti-TAP, or with protein A beads and normal mouse serum (mock IP) for 2 hrs, washed, and separated on SDS-PAGE gels.
(In general: In western blotting, separated proteins are transferred to a membrane and probed.)

Another test has as its system p21 promoter. In words: p21 promoter-luciferase reporter in B16 melanoma cells. The test is classed as cell-based, mouse. The note with it: B16 melanoma cells treated with RA; suppressed by PRAME. The method, then:
(§2) To assess the effect of PRAME knockdown on cell proliferation, we generated stable derivatives of A375 melanoma having shRNA-mediated knockdown of PRAME expression (A375-PRAME^KD). These A375-PRAME^KD cells were cultured for 15 days according to the 3T3 protocol.
Transfections were carried out using the Lipofectamine reagent (Invitrogen), except for Ras^V12 MEFs and Phoenix cells, which were transfected using calcium phosphate precipitation. RA-based reporter assays were done in DMEM with charcoal-stripped FCS (Hyclone). In reporter assays 0.5 μg of reporter-luciferase, 1 ng CMV-renilla, and 3 μg of the indicated DNA were transfected. RA, PXD101, or TSA was added 24 hrs after transfection and assays were performed 48 hrs after transfection. In knock-down experiments, RA or PXD101 was added 72 hrs after transfection and assays were performed 96 hrs after transfection. Luciferase activities shown represent ratios between luciferase and renilla internal control values.
For orientation: A reporter such as luciferase makes a cellular process visible.

The next test has as its system A375-PRAME^KD cells. In words: proliferation of A375-PRAME^KD cells, 3T3 protocol. It counts as cell-based, human. The note with it: 15 days, medium with 5 μM RA. As for the experimental part:
as §2
(§3) F9 cells were stably transfected with PRAME or empty vector and resistant cells were differentiated in 10^−7 M RA for 5 days. A375 cells were stably transfected with pRS-PRAME or empty vector and stable clones were cultured according to the 3T3 protocol. Medium with RA was refreshed every 24-48 hrs.

For test [1], the system named is F9 mouse embryo carcinoma cells. In words: RA-induced apoptosis in F9 cells (cleaved caspase 3). The test is classed as cell-based. The note with it: 10^−7 M RA; vector controls, not PRAME transfectants.
Excerpt: RA induces proliferation arrest, differentiation and apoptosis in many cell types. We therefore asked if PRAME expression affected the RA-induced differentiation of F9 mouse embryo carcinoma cells towards parietal endoderm (Strickland and Mandavi, 1978). F9 cells were stably transfected with PRAME or control vector and individual colonies were selected. In the to absence of RA, the morphology of all transfected cells was the some as that of parental F9 cells. However, F9 cells stably transfected with PRAME […] and treated with 10^−7 M RA were resistant to RA-induced morphological differentiation and growth arrest. Apart from differentiating, a fraction of F9 cells treated with RA dies by apoptosis (Atencia et al, 1994). […] We conclude that PRAME expression confers resistance to RA-induced proliferation arrest, differentiation and apoptosis.
as §3

The next test has as its system A375-PRAMEKD cells. In words: human melanoma xenograft model, A375-PRAMEKD tumours. The test is classed as in vivo, mouse. The note with it: 5 mg/kg RA p.o. daily, nude mice, PRAMEKD melanomas, vs vehicle. As for the experimental part:
To examine the role of PRAME in RA-responsiveness in vivo, we used a human melanoma xenograft model. Nude mice were subcutaneously transplanted with parental A375 into one flank and A375-PRAMEKD cells in the opposite flank and the mice were treated p.o. daily with either 5 mg/kg RA or vehicle only, while tumor volumes were measured weekly.
Female 5-6 week old athymic BALB-C nude mice (nu/nu) were s.c. implanted with 1×10^6 cells bilaterally into the axial regions. Each mouse received A375-PRAMEKD cells in its right flank and control A375 cells in its left flank. Mice were randomized into treatment groups and treated with 5 mg/kg RA or vehicle (ethanol in sunflower oil) p.o. with a 20-gauge intragastric feeding tube daily. Tumor diameter was measured with calipers weekly. The pRS vector which was used to generate A375-PRAMEKD cells is a self-inactivating retroviral vector, to prevent re-activation and spreading of virus (Brummelkamp et al., 2002a; Brummelkamp et al., 2002b). The experiment was performed twice, with n=20 and n=10 mice and results were similar in both experiments.

The test system of the next test is RARβ. Nature of the test: immunoblot for endogenous RARβ in F9 cells treated with RA. The test is classed as cell-based, mouse. The note with it: 10^−7 M RA; parental and mock-transfected F9 cells, not PRAME-transfected. The method, then:
as §1

Test [2] relates to histone H3 acetylation, p21. Nature of the test: immunoblot for acetyl-H3 and p21 in Ras^V12 MEFs treated with HDACi. The test is classed as cell-based, mouse. The note with it: 1 μM PXD101 for 16 hrs; not prevented by PRAME or RARα expression. The method, then:
as §1, with “Ras^V12 MEFs were also transduced with PRAME or RARα retrovirus and treated with 1 μM PXD101 for 16 hrs. Extracts were immunoblotted for acetyl-H3, p21, PRAME, RARα and CDK4 (control). […] Cells” for “Cells”

For `CC(/C=C/C(=O)NO)=C\[C@@H](C)C(=O)c1ccc(N(C)C)cc1` [Trichostatin A], the cell growth entry in the test on RAS^V12-MEFs (Trichostatin A 0.1 μM) is recorded as “growth arrest”.

Consider `CC1=C(/C=C/C(C)=C/C=C/C(C)=C/C(=O)O)C(C)(C)CCC1` [RA, All-trans-retinoic acid], for which the “induction of RA target genes RARβ and p21” value in the test on RARβ and p21 is recorded as “enhanced”. Also, in the test with p21 promoter, the “p21 promoter-luciferase reporter activity” value is “activated”. Besides, in the test on A375-PRAME^KD cells, the proliferation rates entry was “significantly decreased proliferation rates, especially when cultured in the presence of RA”. The “cleaved caspase 3 (apoptosis)” value in test [1] is listed as “apparent in vector controls”. The tumor growth entry with A375-PRAMEKD cells is “severely retarded”. In addition, the “endogenous RARβ protein expression” value with RARβ is recorded as “induced”.

`O=C(/C=C/c1cccc(S(=O)(=O)Nc2ccccc2)c1)NO` [PXD101, N-hydroxy-3-(3-phenylsulfamoyl-phenyl)-acrylamide]: the cell growth entry with RAS^V12-MEFs (1 μM PXD101) is “growth arrest”. Besides, in test [2], the “histone H3 acetylation” value is “increase” and the p21 expression result was “induction”.
